Laboratory results taken from ChEMBL document CHEMBL1201862, “PubChem BioAssay data set” (2004).
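Assay format: 96-well plates, 48-hour exposure. GI50 is the concentration that inhibits growth by half.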 Active and inactive are the calls of the source. Cut-off read from the data, not from the text of the source: active = GI50 up to about 1.1 µM and inactive = higher.

Columns and labels:
Test in all cases: growth of human tumour cells (NCI), 48 h
[1] = test system: 786-0
[2] = test system: A549
[3] = test system: ACHN
[4] = test system: CAKI-1
[5] = test system: CCRF-CEM
[6] = test system: COLO 205
[7] = test system: DLD-1
[8] = test system: DMS-273
[9] = test system: HCC 2998
[10] = test system: HCT-116
[11] = test system: HCT-15
[12] = test system: HL-60
[13] = test system: HOP-62
[14] = test system: HOP-92
[15] = test system: HT-29
[16] = test system: IGROV-1
[17] = test system: K562
[18] = test system: KM-20L2
[19] = test system: KM12
[20] = test system: LOX IMVI
[21] = test system: LXFL 529
[22] = test system: M14
[23] = test system: M19-MEL
[24] = test system: MOLT-4
[25] = test system: Malme-3M
[26] = test system: NCI-H226
[27] = test system: NCI-H23
[28] = test system: NCI-H460
[29] = test system: NCI-H522
[30] = test system: OVCAR-3
[31] = test system: OVCAR-4
[32] = test system: OVCAR-5
[33] = test system: OVCAR-8
[34] = test system: RPMI-8226
[35] = test system: RXF 393
[36] = test system: RXF 631
[37] = test system: SF-268
[38] = test system: SF-539
[39] = test system: SK-MEL-28
[40] = test system: SK-MEL-5
[41] = test system: SK-OV-3
[42] = test system: SN12C
[43] = test system: SNB-19
[44] = test system: SNB-75
[45] = test system: SR
[46] = test system: SW-620
[47] = test system: TK-10
[48] = test system: U-251
[49] = test system: UACC-257
[50] = test system: UACC-62
[51] = test system: UO-31
[52] = test system: XF498
[53] = test system: A498
[54] = test system: BT-549
[55] = test system: DMS-114
[56] = test system: DU-145
[57] = test system: EKVX
[58] = test system: HOP-18
[59] = test system: Hs-578T
[60] = test system: MCF7
[61] = test system: MDA-MB-231
[62] = test system: MDA-MB-435
[63] = test system: MDA-N
[64] = test system: NCI/ADR-RES
[65] = test system: PC-3
[66] = test system: SF-295
[67] = test system: SK-MEL-2
[68] = test system: SNB-78
[69] = test system: T47D

CC(C)c1cc(C(C)C)c(S(=O)(=O)N=[N+]=[N-])c(C(C)C)c1
GI50 [1]: > 100 µM (inactive)
GI50 [2]: > 100 µM (inactive)
GI50 [3]: > 100 µM (inactive)
GI50 [4]: > 100 µM (inactive)
GI50 [5]: 34.9 µM (inactive)
GI50 [6]: > 100 µM (inactive)
GI50 [7]: > 100 µM (inactive)
GI50 [8]: 94 µM (inactive)
GI50 [9]: > 100 µM (inactive)
GI50 [10]: > 100 µM (inactive)
GI50 [11]: > 100 µM
GI50 [12]: 22.9 µM (inactive)
GI50 [13]: > 100 µM (inactive)
GI50 [14]: > 100 µM (inactive)
GI50 [15]: 46.6 µM (inactive)
GI50 [16]: > 100 µM (inactive)
GI50 [17]: 87.5 µM (inactive)
GI50 [18]: > 100 µM (inactive)
GI50 [19]: > 100 µM (inactive)
GI50 [20]: 47 µM (inactive)
GI50 [21]: > 100 µM (inactive)
GI50 [22]: > 100 µM (inactive)
GI50 [23]: 34.9 µM (inactive)
GI50 [24]: 21.3 µM (inactive)
GI50 [25]: > 100 µM (inactive)
GI50 [26]: > 100 µM (inactive)
GI50 [27]: > 100 µM (inactive)
GI50 [28]: > 100 µM (inactive)
GI50 [29]: > 100 µM (inactive)
GI50 [30]: > 100 µM (inactive)
GI50 [31]: 81.8 µM (inactive)
GI50 [32]: > 100 µM (inactive)
GI50 [33]: > 100 µM (inactive)
GI50 [34]: 18.7 µM (inactive)
GI50 [35]: 68.4 µM (inactive)
GI50 [36]: 59.8 µM (inactive)
GI50 [37]: 67.3 µM (inactive)
GI50 [38]: > 100 µM (inactive)
GI50 [39]: > 100 µM (inactive)
GI50 [40]: > 100 µM (inactive)
GI50 [41]: > 100 µM (inactive)
GI50 [42]: > 100 µM (inactive)
GI50 [43]: > 100 µM (inactive)
GI50 [44]: 23 µM (inactive)
GI50 [45]: 31.6 µM (inactive)
GI50 [46]: > 100 µM (inactive)
GI50 [47]: > 100 µM (inactive)
GI50 [48]: 44 µM (inactive)
GI50 [49]: > 100 µM (inactive)
GI50 [50]: > 100 µM (inactive)
GI50 [51]: > 100 µM (inactive)
GI50 [52]: > 100 µM (inactive)

COc1ccc(/N=C\c2ccc(N(CCC#N)CCC#N)cc2)cc1
GI50 [1]: 52.2 µM (inactive)
GI50 [53]: > 100 µM (inactive)
GI50 [2]: 47.9 µM (inactive)
GI50 [3]: 26.7 µM (inactive)
GI50 [54]: > 38.9 µM (inactive)
GI50 [4]: 69.2 µM (inactive)
GI50 [5]: 48.1 µM (inactive)
GI50 [6]: 44.2 µM (inactive)
GI50 [7]: 24.9 µM (inactive)
GI50 [55]: 27.5 µM (inactive)
GI50 [8]: 31.4 µM (inactive)
GI50 [56]: > 100 µM (inactive)
GI50 [57]: > 100 µM (inactive)
GI50 [9]: 38.8 µM (inactive)
GI50 [10]: 63.8 µM (inactive)
GI50 [11]: 17.4 µM
GI50 [12]: 22.3 µM (inactive)
GI50 [58]: > 100 µM (inactive)
GI50 [13]: > 56.2 µM (inactive)
GI50 [14]: 99.3 µM (inactive)
GI50 [15]: > 67.6 µM (inactive)
GI50 [59]: > 100 µM (inactive)
GI50 [16]: 82 µM (inactive)
GI50 [17]: 7.62 µM (inactive)
GI50 [18]: 9.68 µM (inactive)
GI50 [19]: 17.1 µM (inactive)
GI50 [20]: > 28.9 µM (inactive)
GI50 [21]: 7.11 µM (inactive)
GI50 [22]: 28.1 µM (inactive)
GI50 [23]: 34.1 µM (inactive)
GI50 [60]: > 100 µM (inactive)
GI50 [61]: > 100 µM (inactive)
GI50 [62]: 32.8 µM (inactive)
GI50 [63]: 63.8 µM (inactive)
GI50 [24]: 66.5 µM (inactive)
GI50 [25]: > 84.9 µM (inactive)
GI50 [26]: > 100 µM (inactive)
GI50 [27]: > 100 µM (inactive)
GI50 [28]: 43.1 µM (inactive)
GI50 [29]: > 95.1 µM (inactive)
GI50 [64]: > 100 µM (inactive)
GI50 [30]: 78.3 µM (inactive)
GI50 [31]: > 86.1 µM (inactive)
GI50 [32]: 55.5 µM (inactive)
GI50 [33]: 74.6 µM (inactive)
GI50 [65]: 47 µM (inactive)
GI50 [34]: 59 µM (inactive)
GI50 [35]: > 78.5 µM (inactive)
GI50 [37]: 53.2 µM (inactive)
GI50 [66]: 54.1 µM (inactive)
GI50 [38]: 27.9 µM (inactive)
GI50 [39]: > 81.1 µM (inactive)
GI50 [67]: > 67.1 µM (inactive)
GI50 [40]: 40.4 µM (inactive)
GI50 [41]: > 100 µM (inactive)
GI50 [42]: > 89.3 µM (inactive)
GI50 [43]: 90.2 µM (inactive)
GI50 [44]: > 100 µM (inactive)
GI50 [68]: > 100 µM (inactive)
GI50 [45]: 90.8 µM (inactive)
GI50 [46]: 61.1 µM (inactive)
GI50 [69]: > 100 µM (inactive)
GI50 [47]: 64.1 µM (inactive)
GI50 [48]: > 83.2 µM (inactive)
GI50 [49]: > 100 µM (inactive)
GI50 [50]: 16.6 µM (inactive)
GI50 [51]: 44.5 µM (inactive)
GI50 [52]: > 100 µM (inactive)

Cc1ccc(NC(=O)c2c(C)nc(=O)n3c2N(/N=C/c2ccc(Cl)cc2)CC3)cc1
GI50 [1]: 17.8 µM (inactive)
GI50 [53]: 15.9 µM (inactive)
GI50 [3]: 16.3 µM (inactive)
GI50 [4]: 18.2 µM (inactive)
GI50 [5]: 26.9 µM (inactive)
GI50 [6]: 21.7 µM (inactive)
GI50 [7]: 16.6 µM (inactive)
GI50 [55]: 16.5 µM (inactive)
GI50 [8]: 19.2 µM (inactive)
GI50 [9]: 17.9 µM (inactive)
GI50 [10]: 13.2 µM (inactive)
GI50 [12]: 23.1 µM (inactive)
GI50 [13]: 18.7 µM (inactive)
GI50 [14]: 20 µM (inactive)
GI50 [16]: 18.2 µM (inactive)
GI50 [17]: 26.7 µM (inactive)
GI50 [21]: 16.8 µM (inactive)
GI50 [22]: 17.1 µM (inactive)
GI50 [23]: 19.9 µM (inactive)
GI50 [24]: 23.8 µM (inactive)
GI50 [25]: 21.4 µM (inactive)
GI50 [26]: 16 µM (inactive)
GI50 [27]: 14.2 µM (inactive)
GI50 [29]: 10.4 µM (inactive)
GI50 [31]: 14.4 µM (inactive)
GI50 [34]: > 10 µM (inactive)
GI50 [36]: 14.7 µM (inactive)
GI50 [37]: 12.7 µM (inactive)
GI50 [38]: 11.9 µM (inactive)
GI50 [39]: 16.3 µM (inactive)
GI50 [67]: 18.7 µM (inactive)
GI50 [41]: 21.3 µM (inactive)
GI50 [42]: 14.7 µM (inactive)
GI50 [44]: 18.8 µM (inactive)
GI50 [68]: 19.8 µM (inactive)
GI50 [45]: 24.5 µM (inactive)
GI50 [50]: 13.4 µM (inactive)
GI50 [51]: 11.7 µM (inactive)
GI50 [52]: 15.6 µM (inactive)
